These compounds were tested on HCC1937 (assay: normalised response (% of control), CellTiter-Glo; higher = more viable cells (100 = DMSO, 0 = benzethonium chloride kill control)). Conditions: incubation time: 72 h.
Summary of the method: (§1)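 Each value is the plate-normalised signal at one concentration of the series. Breast cancer cell lines (20 µl suspension) were incubated 72 h in 384-well plates with compound at 5 concentrations in 10-fold steps over a compound-specific 10,000-fold range. CellTox Green and then CellTiter-Glo were read, and each plate was scaled to 0.1 % DMSO (100) and a positive kill control (0).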
`CC[C@H](C)C(=O)O[C@H]1C[C@H](O)C=C2C=C[C@H](C)[C@H](CC[C@@H](O)C[C@@H](O)CC(=O)O)[C@H]21` [Pravastatin] (10000 nM) showed a normalised response of 37%.

Each compound was assayed on HDQ-P1 in the same assay as above. Conditions: incubation time: 72 h.
Summary of the method: as §1
Compound `O=C(/C=C/c1cccnc1)NCCCCC1CCN(C(=O)c2ccccc2)CC1` [Daporinad] (1000 nM) has a normalised response of 15.9%.
Compound `COc1cc2nccc(Oc3ccc(NC(=O)Nc4cc(C)on4)c(Cl)c3)c2cc1OC` [Tivozanib] (10000 nM) has a normalised response of 62.2%.
For `CC(=O)Nc1cccc(-n2c(=O)n(C3CC3)c(=O)c3c(Nc4ccc(I)cc4F)n(C)c(=O)c(C)c32)c1` [Trametinib] (250 nM), the normalised response was 57.4%.
With `CC[C@H](C)C(=O)O[C@H]1C[C@H](O)C=C2C=C[C@H](C)[C@H](CC[C@@H](O)C[C@@H](O)CC(=O)O)[C@H]21` [Pravastatin] (10000 nM) the normalised response was 65.7%.

What follows are compounds tested on Hs578T in the same assay as above. Conditions: incubation time: 72 h.
Summary of the method: as §1
For `O=C(/C=C/c1cccnc1)NCCCCC1CCN(C(=O)c2ccccc2)CC1` [Daporinad] (1000 nM), the normalised response was 6.81%.
For `COc1cc2nccc(Oc3ccc(NC(=O)Nc4cc(C)on4)c(Cl)c3)c2cc1OC` [Tivozanib] (10000 nM), the normalised response was 63.8%.
With `CC(=O)Nc1cccc(-n2c(=O)n(C3CC3)c(=O)c3c(Nc4ccc(I)cc4F)n(C)c(=O)c(C)c32)c1` [Trametinib] (250 nM) the normalised response was 64.6%.
With `CC[C@H](C)C(=O)O[C@H]1C[C@H](O)C=C2C=C[C@H](C)[C@H](CC[C@@H](O)C[C@@H](O)CC(=O)O)[C@H]21` [Pravastatin] (10000 nM) the normalised response was 70.3%.

These compounds were tested on MCF-10A in the same assay as above. Conditions: incubation time: 72 h.
Summary of the method: as §1
`O=C(/C=C/c1cccnc1)NCCCCC1CCN(C(=O)c2ccccc2)CC1` [Daporinad] (1000 nM) was tested, and the normalised response was 9.14%.
Work on `COc1cc2nccc(Oc3ccc(NC(=O)Nc4cc(C)on4)c(Cl)c3)c2cc1OC` [Tivozanib] (10000 nM) yielded a normalised response of 42.7%.
`CC(=O)Nc1cccc(-n2c(=O)n(C3CC3)c(=O)c3c(Nc4ccc(I)cc4F)n(C)c(=O)c(C)c32)c1` [Trametinib] (250 nM) was tested, and the normalised response was 32.3%.
For `CC[C@H](C)C(=O)O[C@H]1C[C@H](O)C=C2C=C[C@H](C)[C@H](CC[C@@H](O)C[C@@H](O)CC(=O)O)[C@H]21` [Pravastatin] (10000 nM), the normalised response was 67.1%.

The compounds below were run on MDA-MB-231 in the same assay as above. Conditions: incubation time: 72 h.
Summary of the method: as §1
Compound `O=C(/C=C/c1cccnc1)NCCCCC1CCN(C(=O)c2ccccc2)CC1` [Daporinad] (1000 nM) has a normalised response of 19.2%.
With `COc1cc2nccc(Oc3ccc(NC(=O)Nc4cc(C)on4)c(Cl)c3)c2cc1OC` [Tivozanib] (10000 nM) the normalised response was 46%.
`CC(=O)Nc1cccc(-n2c(=O)n(C3CC3)c(=O)c3c(Nc4ccc(I)cc4F)n(C)c(=O)c(C)c32)c1` [Trametinib] (250 nM) showed a normalised response of 61.9%.
Compound `CC[C@H](C)C(=O)O[C@H]1C[C@H](O)C=C2C=C[C@H](C)[C@H](CC[C@@H](O)C[C@@H](O)CC(=O)O)[C@H]21` [Pravastatin] (10000 nM) has a normalised response of 61%.

What follows are compounds tested on MDA-MB-436 in the same assay as above. Conditions: incubation time: 72 h.
Summary of the method: as §1
`O=C(/C=C/c1cccnc1)NCCCCC1CCN(C(=O)c2ccccc2)CC1` [Daporinad] (1000 nM) was tested, and the normalised response was 37.5%.
`COc1cc2nccc(Oc3ccc(NC(=O)Nc4cc(C)on4)c(Cl)c3)c2cc1OC` [Tivozanib] (10000 nM) was tested, and the normalised response was 79.6%.
For `CC(=O)Nc1cccc(-n2c(=O)n(C3CC3)c(=O)c3c(Nc4ccc(I)cc4F)n(C)c(=O)c(C)c32)c1` [Trametinib] (250 nM), the normalised response was 79.2%.
`CC[C@H](C)C(=O)O[C@H]1C[C@H](O)C=C2C=C[C@H](C)[C@H](CC[C@@H](O)C[C@@H](O)CC(=O)O)[C@H]21` [Pravastatin] (10000 nM) showed a normalised response of 21.6%.

These compounds were tested on MDA-MB-453 in the same assay as above. Conditions: incubation time: 72 h.
Summary of the method: as §1
For `O=C(/C=C/c1cccnc1)NCCCCC1CCN(C(=O)c2ccccc2)CC1` [Daporinad] (1000 nM), the normalised response was 14.8%.
Compound `COc1cc2nccc(Oc3ccc(NC(=O)Nc4cc(C)on4)c(Cl)c3)c2cc1OC` [Tivozanib] (10000 nM) has a normalised response of 64.3%.
`CC(=O)Nc1cccc(-n2c(=O)n(C3CC3)c(=O)c3c(Nc4ccc(I)cc4F)n(C)c(=O)c(C)c32)c1` [Trametinib] (250 nM) gave a normalised response of 98%.
In the case of `CC[C@H](C)C(=O)O[C@H]1C[C@H](O)C=C2C=C[C@H](C)[C@H](CC[C@@H](O)C[C@@H](O)CC(=O)O)[C@H]21` [Pravastatin] (10000 nM), the normalised response is reported as 55.3%.

Each compound was assayed on MDA-MB-468 in the same assay as above. Conditions: incubation time: 72 h.
Summary of the method: as §1
In the case of `O=C(/C=C/c1cccnc1)NCCCCC1CCN(C(=O)c2ccccc2)CC1` [Daporinad] (1000 nM), the normalised response is reported as 0.79%.
With `COc1cc2nccc(Oc3ccc(NC(=O)Nc4cc(C)on4)c(Cl)c3)c2cc1OC` [Tivozanib] (10000 nM) the normalised response was 52.2%.
`CC(=O)Nc1cccc(-n2c(=O)n(C3CC3)c(=O)c3c(Nc4ccc(I)cc4F)n(C)c(=O)c(C)c32)c1` [Trametinib] (250 nM) gave a normalised response of 82.5%.
Work on `CC[C@H](C)C(=O)O[C@H]1C[C@H](O)C=C2C=C[C@H](C)[C@H](CC[C@@H](O)C[C@@H](O)CC(=O)O)[C@H]21` [Pravastatin] (10000 nM) yielded a normalised response of 34.5%.

Each compound was assayed on MFM-223 in the same assay as above. Conditions: incubation time: 72 h.
Summary of the method: as §1
`O=C(/C=C/c1cccnc1)NCCCCC1CCN(C(=O)c2ccccc2)CC1` [Daporinad] (1000 nM) showed a normalised response of 4.89%.
Work on `COc1cc2nccc(Oc3ccc(NC(=O)Nc4cc(C)on4)c(Cl)c3)c2cc1OC` [Tivozanib] (10000 nM) yielded a normalised response of 34.3%.
`CC(=O)Nc1cccc(-n2c(=O)n(C3CC3)c(=O)c3c(Nc4ccc(I)cc4F)n(C)c(=O)c(C)c32)c1` [Trametinib] (250 nM) gave a normalised response of 60.2%.
`CC[C@H](C)C(=O)O[C@H]1C[C@H](O)C=C2C=C[C@H](C)[C@H](CC[C@@H](O)C[C@@H](O)CC(=O)O)[C@H]21` [Pravastatin] (10000 nM) gave a normalised response of 49.5%.

These compounds were tested on SK-BR-3 in the same assay as above. Conditions: incubation time: 72 h.
Summary of the method: as §1
`O=C(/C=C/c1cccnc1)NCCCCC1CCN(C(=O)c2ccccc2)CC1` [Daporinad] (1000 nM) gave a normalised response of 110%.
Work on `COc1cc2nccc(Oc3ccc(NC(=O)Nc4cc(C)on4)c(Cl)c3)c2cc1OC` [Tivozanib] (10000 nM) yielded a normalised response of 70.8%.
`CC(=O)Nc1cccc(-n2c(=O)n(C3CC3)c(=O)c3c(Nc4ccc(I)cc4F)n(C)c(=O)c(C)c32)c1` [Trametinib] (250 nM) showed a normalised response of 96.1%.
For `CC[C@H](C)C(=O)O[C@H]1C[C@H](O)C=C2C=C[C@H](C)[C@H](CC[C@@H](O)C[C@@H](O)CC(=O)O)[C@H]21` [Pravastatin] (10000 nM), the normalised response was 21.6%.

Source: the supplement of paper PMC4862054
